# Measurements reported in US8178506B2, “Oligomeric compounds and compositions for use in modulation of small non-coding RNAs” (Regulus Therapeutics Inc., priority 2003, dated 2012).
# In the oligonucleotide strings, read from the 5' end, every base follows the letter of its sugar. An asterisk marks phosphorothioate; unmarked linkages are phosphodiester. Other units and linkages are bracketed, terminal groups are in braces. A string of capitals states the bases alone. e = 2'-O-(2-methoxyethyl) (MOE); [5mC] = 5-methylcytosine; d = 2'-deoxy (DNA)
# What was measured:
# HeLa cells = test: Cell cycle assay in HeLa cells; format: cell-based, human; conditions: HeLa cells
# follistatin = test: Follistatin mRNA expression in HepG2 cells; format: cell-based, human; conditions: for Follistatin mRNA expression: Experiment 2, insulin treated: HepG2 cells transfected with oligomeric compound, 1 nM insulin for four hours, UTC + 1 nM insulin = 100
# Method: (§1) Approximately 28 hours after transfection, the cells are subjected to serum starvation for a period of 12 to 16 hours, using serum-free growth medium. Following serum starvation, cells are treated with 1 nM insulin (insulin-treated) or are left untreated (basal conditions) for approximately four hours. At the same time, untreated control cells in both plates are treated with 100 nM insulin to determine the maximal insulin response. Following insulin treatment (forty-eight hours after transfection), total RNA is harvested from all samples, and the amount of total RNA from each sample is determined using a Ribogreen assay (Invitrogen Corporation, Carlsbad, Calif.). Real-time PCR is performed on the total RNA samples using primer/probe sets for three insulin responsive genes: insulin-like growth factor binding protein-1 (IGFBP-1), cytosolic PEPCK (PEPCK-C), and follistatin. Gene expression levels obtained by real-time PCR are normalized for total RNA content in the samples.
# (§2) Oligomeric compounds of the present invention were tested for their effects on insulin signaling in HepG2 cells. HepG2 cells were plated at 7500 cells/well in collagen coated 96-well plates. The following day, cells were transfected with oligomeric compounds targeting miRNAs using 100 nM oligomeric compound in LIPOFECTIN™ (Invitrogen Corporation, Carlsbad, Calif.) in two 96-well plates. The oligomeric compounds were tested in triplicate on each 96-well plate, except for positive and negative controls, which were measured up to six times per plate. At the end of transfection, the transfection medium was replaced by regular growth medium. Twenty-eight hours post-transfection, the cells were subjected to overnight (sixteen to eighteen hours) serum starvation using serum free growth medium. Forty-four hours post-transfection, the cells in the transfected wells were treated with either no insulin (“basal” Experiment 1, for identification of insulin-mimetic compounds) or with 1 nM insulin (“insulin treated” Experiment 2, for identification of insulin sensitizers) for four hours. At the same time, in both plates, cells in some of the un-transfected control wells are treated with 100 nM insulin to determine maximal insulin response. At the end of the insulin or no-insulin treatment (forty-eight hours post-transfection), total RNA is isolated from both the basal and insulin treated (1 nM) 96-well plates, and the amount of total RNA from each sample is determined using a Ribogreen assay (Molecular Probes, Eugene, Oreg.). Real-time PCR is performed on all the total RNA samples using primer/probe sets for three insulin responsive genes: PEPCK-c, IGFBP-1 and follistatin. Expression levels for each gene are normalized to total RNA, and values+standard deviation are expressed relative to the transfectant only untreated control (UTC) and negative control compounds.
# (§3) Protocols for treatment of HepG2 cells and transfection of oligomeric compounds are as described in Example 18. Also as described in Example 18, forty-four hours post-transfection, the cells in the transfected wells were treated with either no insulin (“basal” Experiment 3 (below), for identification of insulin-mimetic compounds) or with 1 nM insulin (“insulin treated” Experiment 4 (below), for identification of insulin sensitizers) for four hours. At the same time, in both plates, cells in some of the un-transfected control wells are treated with 100 nM insulin to determine maximal insulin response. At the end of the insulin or no-insulin treatment (forty-eight hours post-transfection), total RNA is isolated from both the basal and insulin treated (1 nM) 96-well plates, and the amount of total RNA from each sample is determined using a Ribogreen assay (Molecular Probes, Eugene, Oreg.).
# IGFBP-1 = IGFBP-1 mRNA expression in HepG2 cells; format: cell-based, human; conditions: for IGFBP1 mRNA expression: Experiment 2, insulin treated: HepG2 cells transfected with oligomeric compound, 1 nM insulin for four hours, UTC + 1 nM insulin = 100
# Method: as §1, §2, §3
# PEPCK-c = PEPCK-c mRNA expression in HepG2 cells; format: cell-based, human; conditions: for PEPCKc mRNA expression: Experiment 2, insulin treated: HepG2 cells transfected with oligomeric compound, 1 nM insulin for four hours, UTC + 1 nM insulin = 100
# Method: as §1, §2, §3
# [1] = tested on: BJ, B16-F10, T47D, T47Dp53 and HeLa cells; test: Cell cycle assay (propidium iodide flow cytometry), cell line panel; format: cell-based; conditions: 150 nM oligomeric compound, 4.5 μg/ml LIPOFECTIN, after 72 hours, propidium iodide flow cytometry
# Glut4 = Glut4 mRNA expression in adipocytes (real-time PCR); format: cell-based, human; conditions: differentiating adipocytes transfected with oligomeric compound; Table 75
# adipocytes = test: Triglyceride accumulation assay in adipocytes; format: cell-based, human; conditions: differentiating adipocytes transfected with oligomeric compound; Table 75
# HSL = HSL mRNA expression in adipocytes (real-time PCR); format: cell-based, human; conditions: differentiating adipocytes transfected with oligomeric compound; Table 75
# aP2 = aP2 mRNA expression in adipocytes (real-time PCR); format: cell-based, human; conditions: differentiating adipocytes transfected with oligomeric compound; Table 75
# PPARγ = PPARγ mRNA expression in adipocytes (real-time PCR); format: cell-based, human; conditions: differentiating adipocytes transfected with oligomeric compound; Table 75
# T47D cells = test: Caspase-3 activity assay (apoptosis) in T47D cells; conditions: T47D cells, 48 hours; for Fold Increase over UTC (caspase-3 activity, apoptosis): 200 nM oligomeric compound, experiment of Table 10
# [2] = 150 nM oligomeric compound, 24 hours, relative to untreated control (UTC = 100)
# [3] = 150 nM oligomeric compound, 48 hours after treatment, relative to untreated control (UTC=100)
# [4] = 150 nM, 48 hours, relative to untreated control
# [5] = HepG2 cells, Experiment 1, basal (no insulin), four hours, UTC = 100
# [6] = Experiment 3, basal (no insulin), HepG2 cells, 48 hours post-transfection
# [7] = Experiment 4, insulin-sensitization: HepG2 cells treated with 1 nM insulin for four hours, 48 h post-transfection, mRNA by real-time PCR
substance,measurement,setting,value
328342 (e[5mC]*eA*eA*eT*eT*dG*d[5mC]*dG*d[5mC]*dT*dA*d[5mC]*dA*dG*dA*eA*e[5mC]*eT*eG*eT) [compound 328342],% cells aneuploid,HeLa cells; [2],67%
same,% cells in cell cycle phase G1,HeLa cells; [2],33%
same,% cells in cell cycle phase G2/M,HeLa cells; [2],238%
same,% cells in cell cycle phase S,HeLa cells; [2],95%
same,% cells in cell cycle phase subG1,HeLa cells; [2],192%
same,% cells in cell cycle phase: G1,HeLa cells; [3],55%
same,% cells in cell cycle phase: G2/M,HeLa cells; [3],225%
same,% cells in cell cycle phase: S,HeLa cells; [3],115%
same,% cells in cell cycle phase: aneuploid,HeLa cells; [3],107%
same,% cells in cell cycle phase: subG1,HeLa cells; [3],189%
same,% cells in cell cycle phase G1,HeLa cells; [4],96%
same,% cells in cell cycle phase G2/M,HeLa cells; [4],138%
same,% cells in cell cycle phase S,HeLa cells; [4],89%
same,% cells in cell cycle phase aneuploid,HeLa cells; [4],96%
same,% cells in cell cycle phase subG1,HeLa cells; [4],103%
same,Follistatin mRNA expression,follistatin,88
same,IGFBP1 mRNA expression,IGFBP-1,98
same,PEPCKc mRNA expression,PEPCK-c,39
same,G1 (percentage of cells in phase of the cell cycle),[1],62.3%
same,G2/M (percentage of cells in phase of the cell cycle),[1],12.8%
same,S (percentage of cells in phase of the cell cycle),[1],24.9%
same,SubG1 (percentage of cells in phase of the cell cycle),[1],4.8%
same,aneuploid (percentage of cells),[1],15.2%
"341801 (antisense CCUAUCUCCCCUCUGGACC; all 2'-MOE, all phosphorothioate, methylation of C and T or U not given here) [compound 341801]",GLUT4 mRNA,Glut4,77 percentage of untreated control (UTC)
same,TG (triglyceride accumulation),adipocytes,65 percentage of untreated control (UTC)
same,Follistatin mRNA,follistatin; [5],85
same,HSL mRNA,HSL,89 percentage of untreated control (UTC)
same,IGFBP1 mRNA,IGFBP-1; [5],99
same,PEPCKc mRNA,PEPCK-c; [5],73
same,aP2 mRNA,aP2,90 percentage of untreated control (UTC)
same,PPAR gamma mRNA,PPARγ,82 percentage of untreated control (UTC)
328773 (antisense eT*eA*e[5mC]*eT*eT*dT*dA*d[5mC]*dT*d[5mC]*d[5mC]*dA*dA*dG*dG*eT*eT*eT*eT*eA) [compound 328773],Follistatin (% UTC),follistatin; [6],131 % UTC
same,Follistatin (% UTC),follistatin; [7],148 % UTC
same,IGFBP-1 (% UTC),IGFBP-1; [6],148 % UTC
same,IGFBP-1 (% UTC),IGFBP-1; [7],136 % UTC
same,PEPCK-c (% UTC),PEPCK-c; [6],138 % UTC
same,PEPCK-c (% UTC),PEPCK-c; [7],93 % UTC
same,G1 (percentage of cells in phase of the cell cycle),[1],56.4%
same,G2/M (percentage of cells in phase of the cell cycle),[1],16.7%
same,S (percentage of cells in phase of the cell cycle),[1],26.9%
same,SubG1 (percentage of cells in phase of the cell cycle),[1],2.7%
same,aneuploid (percentage of cells),[1],11.7%
328377 (eT*e[5mC]*eA*e[5mC]*eT*d[5mC]*d[5mC]*dT*dA*dA*dA*dG*dG*dT*dT*e[5mC]*eA*eA*eG*eT; antisense) [compound 328377],Follistatin mRNA expression,follistatin,159
same,Fold Increase over UTC (caspase activity),"T47D cells; 200 nM, relative to untreated control",0.7
same,IGFBP1 mRNA expression,IGFBP-1,247
same,PEPCKc mRNA expression,PEPCK-c,182
328423 (antisense e[5mC]*e[5mC]*eA*e[5mC]*eA*dT*dA*dT*dA*d[5mC]*dA*dT*dA*dT*dA*eT*eA*e[5mC]*eG*e[5mC]) [compound 328423],Follistatin mRNA expression,follistatin,114
same,"Fold Increase over UTC (caspase-3 activity, apoptosis)",T47D cells,0.6 fold
same,IGFBP1 mRNA expression,IGFBP-1,69
same,PEPCKc mRNA expression,PEPCK-c,77
same,G1 (percentage of cells in phase of the cell cycle),[1],52.9%
same,G2/M (percentage of cells in phase of the cell cycle),[1],14.8%
same,S (percentage of cells in phase of the cell cycle),[1],32.4%
same,SubG1 (percentage of cells in phase of the cell cycle),[1],4.9%
same,aneuploid (percentage of cells),[1],15.3%
328649 (eG*eT*eA*eG*eA*dT*dA*dA*d[5mC]*dT*dA*dA*dA*d[5mC]*dA*e[5mC]*eT*eA*e[5mC]*e[5mC]; antisense) [compound 328649],Follistatin mRNA expression,follistatin,69
same,"Fold Increase over UTC (caspase-3 activity, apoptosis)",T47D cells,1.0 fold
same,IGFBP1 mRNA expression,IGFBP-1,115
same,PEPCKc mRNA expression,PEPCK-c,86
